Columns and labels:
[1] = target: PIK3CD (Human) (UniProt O00329); assay: Inhibition of PIK3CD Kinase Activity
[2] = target: PIK3CG (human) (UniProt P48736); assay: Inhibition of PIK3CG Kinase Activity
[3] = target: PIK3CB (Human) (UniProt P42338); assay: Inhibition of PIK3CB Kinase Activity
[4] = target: PIK3CA (human) (UniProt P42336); assay: Inhibition of PIK3CA Kinase Activity
PIK3CA (human), sequence (P42336 whole entry, looked up): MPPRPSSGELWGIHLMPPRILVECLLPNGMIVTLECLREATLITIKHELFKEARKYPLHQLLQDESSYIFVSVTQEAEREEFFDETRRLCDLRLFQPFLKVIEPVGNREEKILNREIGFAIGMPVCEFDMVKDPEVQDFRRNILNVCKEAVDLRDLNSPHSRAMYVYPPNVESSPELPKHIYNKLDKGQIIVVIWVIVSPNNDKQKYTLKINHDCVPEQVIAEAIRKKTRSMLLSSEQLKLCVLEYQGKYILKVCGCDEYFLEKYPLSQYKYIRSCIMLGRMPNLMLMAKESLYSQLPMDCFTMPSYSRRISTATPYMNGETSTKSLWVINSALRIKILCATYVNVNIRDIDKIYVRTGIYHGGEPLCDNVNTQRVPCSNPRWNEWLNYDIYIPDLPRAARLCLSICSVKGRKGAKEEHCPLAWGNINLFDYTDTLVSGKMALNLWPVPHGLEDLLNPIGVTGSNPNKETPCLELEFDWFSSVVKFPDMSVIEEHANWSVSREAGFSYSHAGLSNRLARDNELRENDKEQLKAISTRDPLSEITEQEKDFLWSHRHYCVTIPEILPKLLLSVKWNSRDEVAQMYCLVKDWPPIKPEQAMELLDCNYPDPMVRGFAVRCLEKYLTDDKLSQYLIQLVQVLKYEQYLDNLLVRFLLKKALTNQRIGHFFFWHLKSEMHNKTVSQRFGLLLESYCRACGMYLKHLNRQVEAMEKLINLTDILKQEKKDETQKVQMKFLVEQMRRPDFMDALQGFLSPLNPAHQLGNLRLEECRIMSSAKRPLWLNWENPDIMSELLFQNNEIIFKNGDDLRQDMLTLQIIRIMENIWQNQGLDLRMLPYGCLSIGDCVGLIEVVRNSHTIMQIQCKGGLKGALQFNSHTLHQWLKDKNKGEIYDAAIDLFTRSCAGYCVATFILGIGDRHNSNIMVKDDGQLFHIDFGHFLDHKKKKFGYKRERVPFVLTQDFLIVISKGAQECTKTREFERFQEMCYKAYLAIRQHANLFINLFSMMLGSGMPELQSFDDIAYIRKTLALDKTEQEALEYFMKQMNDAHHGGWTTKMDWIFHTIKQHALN

PIK3CD (Human), sequence (O00329 whole entry, looked up): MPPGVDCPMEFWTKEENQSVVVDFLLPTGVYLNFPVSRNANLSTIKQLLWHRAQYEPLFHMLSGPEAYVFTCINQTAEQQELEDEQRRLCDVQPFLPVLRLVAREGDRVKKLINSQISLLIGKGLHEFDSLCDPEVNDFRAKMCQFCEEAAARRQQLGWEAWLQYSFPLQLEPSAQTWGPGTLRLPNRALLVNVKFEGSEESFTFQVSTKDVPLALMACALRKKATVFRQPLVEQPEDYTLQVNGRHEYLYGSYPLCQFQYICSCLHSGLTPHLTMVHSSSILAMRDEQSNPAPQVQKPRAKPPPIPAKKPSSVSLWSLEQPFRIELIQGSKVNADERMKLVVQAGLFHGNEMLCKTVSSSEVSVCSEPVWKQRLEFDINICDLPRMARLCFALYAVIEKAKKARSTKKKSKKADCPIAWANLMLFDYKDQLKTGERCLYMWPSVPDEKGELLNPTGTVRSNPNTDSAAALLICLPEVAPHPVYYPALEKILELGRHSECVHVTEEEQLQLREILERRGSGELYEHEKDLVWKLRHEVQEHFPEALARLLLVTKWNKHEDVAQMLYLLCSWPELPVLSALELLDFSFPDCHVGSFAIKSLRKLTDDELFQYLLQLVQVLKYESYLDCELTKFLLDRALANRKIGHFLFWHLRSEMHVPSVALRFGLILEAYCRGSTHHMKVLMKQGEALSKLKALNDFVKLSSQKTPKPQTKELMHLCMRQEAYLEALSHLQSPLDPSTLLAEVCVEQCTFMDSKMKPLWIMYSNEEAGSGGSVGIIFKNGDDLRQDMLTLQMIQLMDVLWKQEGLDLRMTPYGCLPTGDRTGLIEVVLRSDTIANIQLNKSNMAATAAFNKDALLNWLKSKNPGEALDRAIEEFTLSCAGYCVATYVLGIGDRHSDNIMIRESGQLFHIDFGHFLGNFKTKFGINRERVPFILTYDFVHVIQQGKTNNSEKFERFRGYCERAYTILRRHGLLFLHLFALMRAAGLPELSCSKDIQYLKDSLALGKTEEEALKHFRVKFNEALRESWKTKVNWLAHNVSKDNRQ
PIK3CB (Human), sequence (P42338 whole entry, looked up): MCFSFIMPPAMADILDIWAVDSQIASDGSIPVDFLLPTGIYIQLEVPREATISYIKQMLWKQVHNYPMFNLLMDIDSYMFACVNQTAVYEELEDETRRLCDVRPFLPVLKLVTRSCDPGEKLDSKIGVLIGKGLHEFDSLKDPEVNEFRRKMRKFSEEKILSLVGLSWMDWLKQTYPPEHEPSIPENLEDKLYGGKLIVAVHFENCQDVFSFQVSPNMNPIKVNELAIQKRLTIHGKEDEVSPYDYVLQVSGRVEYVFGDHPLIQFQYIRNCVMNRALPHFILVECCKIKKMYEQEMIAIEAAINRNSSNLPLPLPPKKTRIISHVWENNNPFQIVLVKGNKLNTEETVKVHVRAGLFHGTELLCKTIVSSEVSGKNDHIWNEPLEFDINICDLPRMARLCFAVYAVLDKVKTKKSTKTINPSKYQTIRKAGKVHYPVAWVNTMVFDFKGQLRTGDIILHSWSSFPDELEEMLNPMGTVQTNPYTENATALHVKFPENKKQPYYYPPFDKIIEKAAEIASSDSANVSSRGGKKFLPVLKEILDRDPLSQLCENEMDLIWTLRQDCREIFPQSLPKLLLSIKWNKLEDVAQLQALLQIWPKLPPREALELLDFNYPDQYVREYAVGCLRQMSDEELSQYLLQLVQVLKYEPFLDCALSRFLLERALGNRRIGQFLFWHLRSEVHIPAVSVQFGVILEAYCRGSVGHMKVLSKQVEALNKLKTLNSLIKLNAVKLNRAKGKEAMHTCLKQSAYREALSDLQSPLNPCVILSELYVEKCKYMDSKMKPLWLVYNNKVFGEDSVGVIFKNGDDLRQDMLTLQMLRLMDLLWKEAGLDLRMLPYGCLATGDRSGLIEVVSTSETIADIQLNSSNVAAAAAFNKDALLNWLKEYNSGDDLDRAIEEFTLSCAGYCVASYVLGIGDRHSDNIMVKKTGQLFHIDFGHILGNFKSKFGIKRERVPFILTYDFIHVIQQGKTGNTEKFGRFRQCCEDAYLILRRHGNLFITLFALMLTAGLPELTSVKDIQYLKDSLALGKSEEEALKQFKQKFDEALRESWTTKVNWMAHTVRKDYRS
PIK3CG (human), sequence (P48736 whole entry, looked up): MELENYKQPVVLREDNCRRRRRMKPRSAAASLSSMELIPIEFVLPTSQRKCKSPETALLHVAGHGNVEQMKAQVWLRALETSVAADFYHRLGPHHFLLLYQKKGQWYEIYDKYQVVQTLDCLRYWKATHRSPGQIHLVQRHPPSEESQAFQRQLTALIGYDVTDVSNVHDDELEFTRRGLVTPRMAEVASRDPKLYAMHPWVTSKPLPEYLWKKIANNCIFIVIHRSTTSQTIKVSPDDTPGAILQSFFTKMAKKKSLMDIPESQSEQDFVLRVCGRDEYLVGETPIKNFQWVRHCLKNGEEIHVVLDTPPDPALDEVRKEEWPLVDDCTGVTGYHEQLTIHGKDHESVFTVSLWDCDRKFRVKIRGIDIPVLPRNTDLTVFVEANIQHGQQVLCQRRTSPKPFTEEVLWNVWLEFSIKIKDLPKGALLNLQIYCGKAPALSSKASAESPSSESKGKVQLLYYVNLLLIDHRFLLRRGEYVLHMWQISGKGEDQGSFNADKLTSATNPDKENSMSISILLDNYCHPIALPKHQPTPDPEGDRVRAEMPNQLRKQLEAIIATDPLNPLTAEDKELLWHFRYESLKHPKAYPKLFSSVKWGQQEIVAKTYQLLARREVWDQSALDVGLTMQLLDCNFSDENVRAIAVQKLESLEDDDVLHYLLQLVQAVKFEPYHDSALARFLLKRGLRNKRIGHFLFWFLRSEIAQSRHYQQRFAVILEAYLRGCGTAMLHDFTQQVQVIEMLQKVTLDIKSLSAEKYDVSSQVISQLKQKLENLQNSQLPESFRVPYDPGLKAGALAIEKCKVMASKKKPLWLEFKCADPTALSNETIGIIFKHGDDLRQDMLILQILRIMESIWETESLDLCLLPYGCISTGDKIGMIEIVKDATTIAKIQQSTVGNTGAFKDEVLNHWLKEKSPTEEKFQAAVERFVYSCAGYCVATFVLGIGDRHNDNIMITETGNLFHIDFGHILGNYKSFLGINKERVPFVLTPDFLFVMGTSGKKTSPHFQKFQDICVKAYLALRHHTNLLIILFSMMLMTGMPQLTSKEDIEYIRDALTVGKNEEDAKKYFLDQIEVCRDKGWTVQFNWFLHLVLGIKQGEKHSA

Compound | IC50 [1] | IC50 [2] | IC50 [3] | IC50 [4]
CCc1cccc2cc([C@H](C)Nc3ncnc4[nH]cnc34)n(-c3ccccc3)c(=O)c12 | < 100 nM | < 100 nM | – | –
C[C@H](Nc1ncnc2[nH]cnc12)c1cc2cccc(-c3cccnc3)c2c(=O)n1C1CC1 | < 100 nM | < 100 nM | 100 to 1000 nM | –
C=Cc1cccc2cc([C@H](C)Nc3ncnc4[nH]cnc34)n(-c3ccccc3)c(=O)c12 | < 100 nM | < 100 nM | – | –
C[C@H](Nc1nc(N)ncc1C#N)c1cc2cccc(-c3cnn(C)c3)c2c(=O)n1C1CC1 | < 100 nM | < 100 nM | < 100 nM | –
C[C@H](Nc1ncnc2[nH]cnc12)c1cc2cccc(-c3cnn(C)c3)c2c(=O)[nH]1 | – | > 10000 nM | > 10000 nM | > 10000 nM
C[C@H](Nc1ncnc2[nH]cnc12)c1cc2cccc(N3CCOCC3)c2c(=O)n1-c1ccccc1 | 100 to 1000 nM | 100 to 1000 nM | > 10000 nM | > 10000 nM
C[C@H](Nc1ncnc2[nH]cc(F)c12)c1cc2cccc(-c3cnn(C)c3)c2c(=O)n1C1CC1 | < 100 nM | 100 to 1000 nM | – | –
C[C@H](Nc1ncnc2[nH]cnc12)c1cc2cccc(N3CCCC3)c2c(=O)n1-c1ccccc1 | – | – | > 10000 nM | > 10000 nM
C[C@H](Nc1ncnc2[nH]cnc12)c1cc2cccc(-c3ccncc3)c2c(=O)n1-c1ccccc1 | < 100 nM | < 100 nM | – | –
C[C@H](Nc1ncnc2[nH]cnc12)c1cc2cccc(-c3cnn(C)c3)c2c(=O)n1C1CC1 | < 100 nM | 100 to 1000 nM | – | –
C[C@H](Nc1ncnc2[nH]cnc12)c1cc2cccc(N(C)C)c2c(=O)n1-c1ccccc1 | – | – | > 10000 nM | > 10000 nM
C[C@H](Nc1ncnc2[nH]cnc12)c1cc2cccc(-c3cccnc3)c2c(=O)[nH]1 | < 100 nM | 100 to 1000 nM | > 10000 nM | > 10000 nM
C[C@H](Nc1ncnc2[nH]cnc12)c1cc2cccc(-c3cn[nH]c3)c2c(=O)n1C1CC1 | < 100 nM | < 100 nM | 100 to 1000 nM | 100 to 1000 nM
Cc1cn(-c2cccc3cc([C@H](C)Nc4ncnc5[nH]cnc45)n(-c4ccccc4)c(=O)c23)cn1 | < 100 nM | – | > 10000 nM | > 10000 nM
C[C@H](Nc1ncnc2[nH]cnc12)c1cc2cccc(-c3cc[nH]n3)c2c(=O)n1-c1ccccc1 | < 100 nM | < 100 nM | > 10000 nM | > 10000 nM
C[C@H](Nc1nc(N)nc2[nH]cnc12)c1cc2cccc(-c3cccnc3)c2c(=O)n1-c1ccccc1 | < 100 nM | < 100 nM | – | 100 to 1000 nM
Cc1ccc(-c2cccc3cc([C@H](C)Nc4nc(N)nc5[nH]cnc45)n(-c4ccccc4)c(=O)c23)cn1 | < 100 nM | < 100 nM | – | 100 to 1000 nM
C[C@H](Nc1nc(N)ncc1C(F)(F)F)c1cc2cccc(-c3cnn(C)c3)c2c(=O)n1C1CC1 | < 100 nM | < 100 nM | > 10000 nM | > 10000 nM
C[C@H](Nc1ncnc2[nH]cnc12)c1cc2cccc(-n3cccn3)c2c(=O)n1-c1ccccc1 | 100 to 1000 nM | – | > 10000 nM | > 10000 nM
C[C@H](Nc1ncnc2[nH]cnc12)c1cc2cccc(N3CCN(C)CC3)c2c(=O)n1-c1ccccc1 | 100 to 1000 nM | > 10000 nM | > 10000 nM | > 10000 nM
C[C@H](Nc1ncnc2[nH]cnc12)c1cc2cccc(NC3CCOCC3)c2c(=O)n1-c1ccccc1 | 100 to 1000 nM | – | > 10000 nM | > 10000 nM
C[C@H](Nc1ncnc2[nH]cnc12)c1cc2cccc(-c3cccc(F)c3)c2c(=O)n1-c1ccccc1 | < 100 nM | < 100 nM | – | –

The next lines start with the values.

IC50 [1] | IC50 [2] | IC50 [3] | IC50 [4] | Compound
< 100 nM | < 100 nM | – | – | C[C@H](Nc1ncnc2[nH]cnc12)c1cc2cccc(-c3cccnc3)c2c(=O)n1-c1ccccc1
– | > 10000 nM | > 10000 nM | > 10000 nM | C[C@H](Nc1ncnn2cncc12)c1cc2cccc(-c3cnn(C)c3)c2c(=O)n1-c1ccccc1
< 100 nM | < 100 nM | – | – | C[C@H](Nc1ncnc2[nH]cc(C(N)=O)c12)c1cc2cccc(-c3cnn(C)c3)c2c(=O)n1-c1ccccc1
100 to 1000 nM | – | > 10000 nM | > 10000 nM | Cc1cnn(-c2cccc3cc([C@H](C)Nc4ncnc5[nH]cnc45)n(-c4ccccc4)c(=O)c23)c1
< 100 nM | < 100 nM | – | 100 to 1000 nM | C[C@H](Nc1ncnc2[nH]cc(C#N)c12)c1cc2cccc(-c3cnn(C)c3)c2c(=O)n1-c1ccccc1
< 100 nM | 100 to 1000 nM | > 10000 nM | – | C[C@H](Nc1ncnn2ccnc12)c1cc2cccc(-c3cnn(C)c3)c2c(=O)n1-c1ccccc1
< 100 nM | < 100 nM | > 10000 nM | > 10000 nM | C[C@H](Nc1ncnc2[nH]cnc12)c1cc2cccc(-c3cnn(C)c3)c2c(=O)n1-c1ccccc1
< 100 nM | < 100 nM | > 10000 nM | > 10000 nM | C[C@H](Nc1nc(N)ncc1C(F)(F)F)c1cc2cccc(-c3cnn(C)c3)c2c(=O)n1-c1ccccc1
< 100 nM | < 100 nM | – | 100 to 1000 nM | Cc1cc(-c2cccc3cc([C@H](C)Nc4ncnc5[nH]cnc45)n(-c4ccccc4)c(=O)c23)ccn1
< 100 nM | < 100 nM | > 10000 nM | – | Cc1ccc(-c2cccc3cc([C@H](C)Nc4ncnc5[nH]cnc45)n(-c4ccccc4)c(=O)c23)cn1
< 100 nM | < 100 nM | – | > 10000 nM | C[C@H](Nc1ncnc2[nH]cnc12)c1cc2cccc(C#N)c2c(=O)n1-c1ccccc1
< 100 nM | – | > 10000 nM | > 10000 nM | C[C@H](Nc1ncnc(N)n1)c1cc2cccc(-c3cnn(C)c3)c2c(=O)n1-c1ccccc1
< 100 nM | < 100 nM | > 10000 nM | – | C[C@H](Nc1ncnc2[nH]cnc12)c1cc2cccc(-c3cnn(C)c3)c2c(=O)n1-c1cccc(F)c1
< 100 nM | 100 to 1000 nM | > 10000 nM | > 10000 nM | C[C@H](Nc1nc(N)ncc1Cl)c1cc2cccc(-c3cnn(C)c3)c2c(=O)n1-c1ccccc1
< 100 nM | 100 to 1000 nM | > 10000 nM | – | C[C@H](Nc1ncnc2[nH]cnc12)c1cc2cccc(-c3cn[nH]c3)c2c(=O)n1-c1ccccc1
< 100 nM | < 100 nM | > 10000 nM | > 10000 nM | C[C@H](Nc1nc(N)ncc1C#N)c1cc2cccc(-c3cnn(C)c3)c2c(=O)n1-c1ccccc1
< 100 nM | < 100 nM | – | 100 to 1000 nM | C[C@H](Nc1nc(N)nc2[nH]cnc12)c1cc2cccc(-c3cnn(C)c3)c2c(=O)n1-c1ccccc1
< 100 nM | – | > 10000 nM | – | COc1ncc(-c2cccc3cc([C@H](C)Nc4ncnc5[nH]cnc45)n(-c4ccccc4)c(=O)c23)cn1
< 100 nM | < 100 nM | > 10000 nM | > 10000 nM | C[C@H](Nc1nc(N)ncc1I)c1cc2cccc(-c3cnn(C)c3)c2c(=O)n1-c1ccccc1
100 to 1000 nM | – | > 10000 nM | > 10000 nM | Cc1ccc(-c2cccc3cc([C@H](C)Nc4ncnc(N)n4)n(-c4ccccc4)c(=O)c23)cn1
< 100 nM | < 100 nM | > 10000 nM | – | C[C@H](Nc1ncnc(N)c1C#N)c1cc2cccc(-c3cnn(C)c3)c2c(=O)n1-c1ccccc1
